Patent publication US20210077562A1, “ETBR ANTAGONIST COMPOUNDS, COMPOSITIONS, AND USES” (ENB Therapeutics, Inc., priority 2018, published 2021)

Assays:
[1] = cited from earlier work
[2] = tested on: V600E+ (BRAF mutated) SM1 tumor; assay: SM1 tumor model, in vivo tumor growth curve over 21 days; design: species or system C57BL/6 mice
Text: In this study 6-8 week old female C57BL/6 mice were inoculated with SM1 tumor fragments (TME* components present).

| Compound | degradation in plasma [1] | tumor growth (FIG. 3), standard combination ([2]; dabrafenib 30 mg/kg daily by oral gavage + immune checkpoint inhibitors 10 mg/kg Q4D IP, 21 days) | efficacy on addition to anti-PD1/ETBR antagonist combination ([2]; three-part combination therapy) |
| --- | --- | --- | --- |
| CCCC[C@@H](NC(=O)[C@@H](Cc1cn(C(=O)OC)c2ccccc12)NC(=O)[C@H](CC(C)(C)C)NC(=O)N1[C@H](C)CCC[C@@H]1C)C(=O)O [BQ788, (2R)-2-[[(2R)-2-[[(2S)-2-[[(2R,6S)-2,6-dimethylpiperidine-1-carbonyl]amino]-4,4-dimethylpentanoyl]amino]-3-(1-methoxycarbonylindol-3-yl)propanoyl]amino]hexanoic acid] | rapidly degraded in plasma | – | – |
| CC(C)(C)c1nc(-c2cccc(NS(=O)(=O)c3c(F)cccc3F)c2F)c(-c2ccnc(N)n2)s1 [dabrafenib] | – | failed to shrink tumors but demonstrated intermediate tumor growth inhibition | impairs efficacy |
